{
  "source": "patent US7560446B2",
  "about": "“Use of angiotensin II receptor antagonists for treating acute myocardial infarction” (Novartis AG, priority 1999, dated 2009)",
  "origin": "cited, not measured here",
  "conditions": "preclinical; administration of the compound in acute MI; no details given",
  "data": [
    {"smiles": "CCCCC(=O)N(Cc1ccc(-c2ccccc2-c2nnn[nH]2)cc1)[C@H](C(=O)O)C(C)C", "note": "[valsartan, (S)—N-(1-carboxy-2-methylprop-1-yl)-N-pentanoyl-N—[2′(1H-tetrazol-5-yl)biphenyl-4-ylmethyl]amine]", "values": [
      {"measurement": "size of the MI", "result": "reduce the size of the MI"}
    ]}
  ]
}
